Data from patent publication US12304813B2, “Sodium thiosulfate-containing pharmaceutical compositions” (Hope Medical Enterprises, Inc., priority 2009, dated 2025).

Columns and labels:
[1] = Example 1 batch
Procedure: In another embodiment, the sodium thiosulfate provided herein has a pH between about 6 to about 8 when measured in a 10% solution at 25° C. In certain embodiments, the pH of the sodium provided herein is measured using a pH meter. In certain embodiments, the pH of the sodium thiosulfate provided herein is determined according to Method 791 in USP XXXII (2009).

calciphylaxis = conditions: literature report, Archives of Dermatology 2007; cited from earlier work
vascular calcification = conditions: literature report, Kidney International 2008; cited from earlier work
[2] = system: platinum-induced ototoxicity; conditions: associated with platinum-containing chemotherapeutic agents; Current Opinions in Oncology 1995; cited from earlier work
[3] = system: platinum-induced nephrotoxicity; conditions: associated with platinum-containing chemotherapeutic agents; Current Opinions in Oncology 1995; cited from earlier work

For O.O.O.O.O.O=S([O-])([O-])=S.[Na+].[Na+] [sodium thiosulfate pentahydrate], the “pH of 10% solution at 25° C.” value [1] is listed as 6.6, the treatment for calciphylaxis (calciphylaxis) is listed as “effective treatment” and the “treatment for vascular calcification” value (vascular calcification) is listed as “effective treatment”. The “treatment to prevent platinum-induced ototoxicity” value [2] was “effective treatment” and the “treatment to prevent platinum-induced nephrotoxicity” value [3] was “effective treatment”.
